Measured values published in PMC11855207, “Synthesis and Evaluation of Aromatic A-Ring 23-Oxavitamin D3 Analogues as Hedgehog Pathway Inhibitors” (International Journal of Molecular Sciences, 2025).

What was measured:
[1] = system: VDR signaling (Cyp24A1 mRNA) in C3H10T1/2 cells; assay: Cyp24A1 mRNA up-regulation (qPCR) in C3H10T1/2 cells; format: cell-based, mouse; details: Mus musculus, C3H 10T1/2, 5 μM with OHCs 5 μM, 24 h, relative to DMSO (set to 1.0)
Protocol: (§1) The VD3 analogues were initially assessed for their ability to inhibit the Hh signaling pathway by evaluating the effects on endogenous Gli1 mRNA levels at a single concentration (5 μM) co-administration of oxysterols (OHCs; 20(S)-hydroxycholesterol, 22(S)-hydroxycholesterol at 5 μM each) in C3H10T1/2 cells, an Hh-dependent mouse embryonic fibroblast (MEF) cell line. […] VD3 derivatives may retain some VDR agonistic activity, thereby compromising the selectivity of these compounds as Hh inhibitors. The selectivity profile of the analogues for Hh inhibition, compared to typical VDR activation, was assessed by measuring the ability to up-regulate Cyp24a1 mRNA levels in the same cellular system and by evaluating their binding to VDR using a fluorescence polarization-based competition assay (Table 1).
(§2) Mouse embryonic fibroblast cell line (C3H10T1/2, wild-type, VDR^−/−, SuFu^−/−), mouse keratinocyte cell line (ASZ001), and human embryonic kidney cell line (HEK293T) were purchased from China Center for Type Culture Collection (CCTCC; Wuhan, Hubei, China) and cultured under standard protocols. […] Therefore, they can be used to assess the inhibitory strength of the Hh signaling and the selectivity of the VDR signaling. VDR^−/− and SuFu^−/− C3H10T1/2 cells were used to study compounds selectivity for Hh and VDR signaling. If compounds regulate Hh signaling independently of VDR, their ability to down-regulate Gli1 mRNA expression should be abolished in SuFu^−/− C3H10T1/2 cells. […] The loss of Ptch in ASZ001 cells […], so down-regulating Gli1 reflects direct Smo inhibition by the compound. Comparing results from ASZ001 and C3H10T1/2 cells highlights the compound’s inhibition of the Hh signaling pathway.
(§3) RNA isolation in C3H10T1/2 cells was performed in 24-well plates (50,000 cells plated; TRIZOL Reagent); in ASZ001, cells were done in 35 mm dishes (300,000 cells plated; TRIZOL Reagent). cDNA synthesis was performed utilizing the SweScript All-in-One RT SuperMix Kit (Servicebio, Wuhan, China) per the manufacturer’s instructions on a BioRad S1000 Thermal Cycler (Hercules, CA, USA). qPCR (Hh signaling pathway and VDR) analysis of target genes was performed on Step OnePlus (ABI) using the Taqman Gene Expression Assays: mouse ActB (Mm00607939_s1), mouse GLI1 (Mm00494645_ml), mouse PTCH1(Mm00436026_m1), and mouse CYP24A1 (Mm00487244_ml). Relative gene expression levels were computed via the ΔΔCt method. ActinB mRNA expression levels of all samples were normalized to DMSO control ActinB mRNA levels (vehicle; set at 1.00). […] The mRNA expression levels from drug-treated samples were compared to OHCs levels (Gli1, PTCH) and DMSO control (Cyp24A1).

[2] = system: Cyp24A1 mRNA in SuFu−/− C3H10T1/2 cells; assay: Cyp24A1 up-regulation in SuFu−/− C3H10T1/2 cells; format: cell-based, mouse; details: 24 h
[3] = system: Hh signaling (Gli1 mRNA) in VDR−/− C3H10T1/2 cells; assay: Gli1 down-regulation in VDR−/− C3H10T1/2 cells; format: cell-based, mouse; details: 24 h
[4] = system: Hh signaling (Gli1 mRNA) in SuFu−/− C3H10T1/2 cells; assay: Gli1 down-regulation in SuFu−/− C3H10T1/2 cells; format: cell-based, mouse; details: 24 h
[5] = biological target: T1, recombinant VDR (Homo sapiens, UniProt P11473); assay: VDR binding, fluorescence polarization-based competition assay (PolarScreen VDR Competitor Assay Red); details: compounds evaluated at 100 μM
T1 construct: purchased Thermo Fisher Scientific
T1 sequence (P11473 1-427): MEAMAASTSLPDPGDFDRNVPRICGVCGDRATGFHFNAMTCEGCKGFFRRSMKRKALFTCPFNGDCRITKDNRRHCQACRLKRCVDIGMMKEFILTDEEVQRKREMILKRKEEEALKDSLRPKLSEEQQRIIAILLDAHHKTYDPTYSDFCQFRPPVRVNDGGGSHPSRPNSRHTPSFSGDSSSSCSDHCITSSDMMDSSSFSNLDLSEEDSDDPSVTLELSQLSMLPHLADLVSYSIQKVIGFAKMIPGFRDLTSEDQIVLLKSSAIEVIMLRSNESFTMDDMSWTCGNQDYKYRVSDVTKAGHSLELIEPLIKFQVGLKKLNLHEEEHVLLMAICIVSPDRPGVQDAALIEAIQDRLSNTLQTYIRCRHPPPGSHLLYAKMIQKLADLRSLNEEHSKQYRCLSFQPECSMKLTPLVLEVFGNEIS
Protocol: as §1
VDR binding assay was performed using a PolarScreen VDR Competitor Assay Red kit (Thermo Fisher Scientific, Carlsbad, CA, USA) per the manufacturer’s instructions. Compounds were evaluated at 100 μM in 2.5% final DMSO in triplicate. Calcitriol is utilized as a positive control for VDR binding.

[6] = system: ASZ001 cells; assay: Anti-proliferation (MTS) in ASZ001 cells; format: cell-based; details: Mus musculus, 48 h incubation, mean ± SEM
[7] = system: Hh signaling pathway (Gli1 mRNA) in C3H10T1/2 cells; assay: Gli1 mRNA down-regulation (qPCR) in OHC-stimulated C3H10T1/2 cells; format: cell-based, mouse; details: Mus musculus; for mrna remaining at 5 µM: C3H 10T1/2, 5 μM with OHCs 5 μM, 24 h, relative Gli1 mRNA levels compared to OHCs (set to 100%); for IC50: C3H 10T1/2, mean ± SEM
Protocol: as §1, §2, §3

[8] = system: Hh signaling pathway (Gli1 mRNA) in ASZ001 cells; assay: Gli1 mRNA down-regulation (qPCR) in ASZ001 cells; format: cell-based; details: Mus musculus; ASZ001 cells; mean ± SEM; read-out: Gli1 IC50
[9] = system: VDR signaling (Cyp24A1 mRNA) in ASZ001 cells; assay: Cyp24A1 mRNA expression (qPCR) in ASZ001 cells; format: cell-based; details: Mus musculus; ASZ001 cells; 5 μM, 24 h; DMSO set to 1.0; read-out: Cyp24A1 mRNA levels relative to DMSO
[10] = system: primary Ptch-CKO MB cells; assay: Anti-proliferation (MTS) in primary Ptch-CKO MB cells; format: cell-based; details: Mus musculus, 48 h incubation, mean ± SEM
Protocol: Ptch-CKO MB cells, derived from a conditional Patched knockout mouse, lack Ptch-like ASZ001 cells. Consequently, the inhibitory effect of the compound on Ptch-CKO MB cells directly reflects its suppression of the canonical Hh signaling pathway. Cell viability was assessed by MTS proliferation assay kit (Promega, Madison, WI, USA) according to the manufacturer’s protocol. Culture conditions and experimental protocols to determine GI50 values in the primary murine Ptch-CKO MB cells were as previously described.

[11] = biological target: T2, full-length human Smo (Homo sapiens, UniProt Q99835); assay: BODIPY-Cyc displacement (flow cytometry) in HEK293T cells overexpressing Smo; format: binding; details: up to 10 μM
T2 construct: HEK293T cells overexpressing full-length human Smo was evaluated; expressed in transfected cells; host or cells: HEK293T
T2 sequence (Q99835 28-787): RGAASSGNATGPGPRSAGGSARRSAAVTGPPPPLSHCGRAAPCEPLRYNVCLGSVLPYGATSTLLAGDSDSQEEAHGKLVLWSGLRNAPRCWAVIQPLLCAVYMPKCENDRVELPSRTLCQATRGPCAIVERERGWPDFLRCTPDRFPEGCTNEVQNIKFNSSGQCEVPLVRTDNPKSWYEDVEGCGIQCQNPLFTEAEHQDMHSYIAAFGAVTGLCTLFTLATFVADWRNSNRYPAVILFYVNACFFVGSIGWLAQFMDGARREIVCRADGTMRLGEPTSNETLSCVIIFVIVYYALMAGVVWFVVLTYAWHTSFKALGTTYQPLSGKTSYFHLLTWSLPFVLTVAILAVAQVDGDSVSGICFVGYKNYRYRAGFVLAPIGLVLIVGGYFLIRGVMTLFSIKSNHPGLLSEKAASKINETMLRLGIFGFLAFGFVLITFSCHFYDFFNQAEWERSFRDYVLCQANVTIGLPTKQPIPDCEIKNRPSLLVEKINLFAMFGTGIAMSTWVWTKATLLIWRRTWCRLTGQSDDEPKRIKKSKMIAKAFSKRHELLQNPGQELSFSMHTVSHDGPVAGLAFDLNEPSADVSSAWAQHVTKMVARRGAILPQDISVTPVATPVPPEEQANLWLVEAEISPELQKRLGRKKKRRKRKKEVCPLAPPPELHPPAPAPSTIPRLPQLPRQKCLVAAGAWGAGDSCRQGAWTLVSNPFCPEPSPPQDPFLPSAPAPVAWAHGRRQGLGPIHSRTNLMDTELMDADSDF

[12] = system: Hh signaling pathway; assay: Anti-Hh activity in combination with vismodegib; format: cell-based; details: combined with vismodegib 100 nM
[13] = system: Cyp24A1 mRNA in VDR−/− C3H10T1/2 cells; assay: Cyp24A1 up-regulation in VDR−/− C3H10T1/2 cells; format: cell-based, mouse; details: 24 h
[14] = biological target: T3, Smo protein (Homo sapiens, UniProt Q99835); assay: Surface plasmon resonance (SPR) binding to Smo; details: 2.5, 5, 10 μM in PBS, 4 °C
T3 construct: purchased ACRO Biosystems SMO-H52P3
T3 sequence (Q99835 28-787): as above
Protocol: Surface plasmon resonance (SPR) was used to evaluate the binding capacity of the compounds 3j and 4i to Smo. […] To investigate the binding sites of the analogues on Smo, the ability of 3j and 4i to displace BODIPY-Cyc from HEK293T cells overexpressing full-length human Smo was evaluated. […] Smo contains two small molecule binding sites, one located in the extracellular cysteine-rich domain (CRD) and the other in the 7-transmembrane helix (7-TM) region. […] Endogenous oxidized sterols can regulate Smo activity by binding CRD [27]. These analogues, as mimetics of steroid hormones, may interact with Smo by binding to CRD.
SPR analysis was conducted as described in papers. The analyses of interactions between Smo protein (ACRO Biosystems, SMO-H52P3, Newark, DE, USA) and compounds at different concentrations (2.5, 5, 10 μM) was performed in PBS and a flow rate of 2 μL/s at 4 °C. The sensor chip surface was regenerated by injection of 0.5% SDS: Glycine-HCl (pH = 2.0) = 1:1 solution.

[15] = system: Hh signaling pathway (Ptch mRNA) in C3H10T1/2 cells; assay: Ptch mRNA down-regulation (qPCR) in C3H10T1/2 cells; format: cell-based; details: Mus musculus, C3H 10T1/2; C3H10T1/2 cells; mean ± SEM; read-out: Ptch IC50

Row | SMILES | fold induction at 5 µM [1] | Ability to up-regulate Cyp24A1 versus wild-type cells [2] | Ability to inhibit Hh signaling (Gli1 down-regulation) versus wild-type cells [3] | Ability to inhibit Hh signaling (Gli1 down-regulation) versus wild-type cells [4] | VDR Binding [5] | GI50 [6] | mrna remaining at 5 µM [7] | IC50 [7] | IC50 [8] | fold induction at 5 µM [9] | GI50 [10] | Displacement of BODIPY-Cyc from Smo [11] | Change of IC50 value in combination with vismodegib [12] | Ability to up-regulate Cyp24A1 versus wild-type cells [13] | SPR interaction with Smo [14] | IC50 [15] | Displacement of BODIPY-Cyc from Smo ([11]; listed as Cyc)
1 | C[C@H](COCC(C)(C)O)[C@H]1CC[C@H]2[C@@H](OC(=O)c3cc(O)cc(O)c3)CCC[C@]12C [Compound 4i] | 129 ± 16.8 | significantly reduced | modestly reduced | mostly abolished | >100 µM | 5.8 ± 0.8 µM | 1.7 ± 0.3% | 1.1 ± 0.1 µM | 1.8 ± 0.3 µM | 87.4 ± 10.6 | 2.2 ± 0.3 µM | neither 3j nor 4i affected BODIPY-Cyc-Smo binding interactions | did not change the IC50 value | significantly reduced | exhibited interactions with Smo | 1.9 ± 0.3 µM | –
2 | C[C@H](COCC(C)(C)O)[C@H]1CC[C@H]2[C@@H](OC(=O)c3cccc(O)c3)CCC[C@]12C [Compound 4h] | 87.4 ± 13.7 | – | – | – | >100 µM | > 20 µM | 3.8 ± 0.4% | 2.8 ± 0.2 µM | 4.1 ± 0.5 µM | 60.3 ± 6.4 | > 10 µM | – | – | – | – | 5.7 ± 0.5 µM | –
3 | CC(C)COC[C@@H](C)[C@H]1CC[C@H]2[C@@H](OC(=O)c3ccc(O)cc3)CCC[C@]12C [Compound 3k] | 32.1 ± 3.2 | – | – | – | >100 µM | > 20 µM | 7.3 ± 1.9% | 3.8 ± 0.4 µM | 6.2 ± 1.1 µM | 5.8 ± 0.3 | > 10 µM | – | – | – | – | 10.3 ± 1.1 µM | –
4 | CS(=O)(=O)c1ccc(C(=O)Nc2ccc(Cl)c(-c3ccccn3)c2)c(Cl)c1 [Vismodegib, reference compound] | – | – | – | no activity | – | 2.1 µM | – | – | – | – | 0.78 ± 0.1 µM | – | – | – | – | – | –
5 | COc1ccc(C(=O)O[C@H]2CCC[C@]3(C)[C@@H]([C@H](C)COCC(C)(C)O)CC[C@@H]23)cc1O [Compound 4g] | 83.6 ± 15.6 | – | – | – | >100 µM | 7.8 ± 1.1 µM | 2.5 ± 0.5% | 2.1 ± 0.2 µM | 3.7 ± 0.7 µM | 56.8 ± 5.1 | 3.4 ± 0.5 µM | – | – | – | – | 3.8 ± 0.4 µM | –
6 | CC(C)COC[C@@H](C)[C@H]1CC[C@H]2[C@@H](OC(=O)c3cc(N)cc(N)c3)CCC[C@]12C [Compound 3h] | 6.7 ± 0.8 | – | – | – | >100 µM | > 20 µM | 5.6 ± 0.9% | 3.2 ± 0.3 µM | 4.7 ± 0.4 µM | 5.1 ± 0.3 | > 10 µM | – | – | – | – | 7.8 ± 0.6 µM | –
7 | CC1=C2C[C@H]3[C@@H](CC=C4C[C@@H](O)CC[C@@]43C)[C@@H]2CC[C@]12O[C@@H]1C[C@H](C)CN[C@H]1[C@H]2C [Cyclopamine, reference compound] | – | – | – | – | – | – | – | – | – | – | – | displaced BODIPY-Cyc in a concentration-dependent manner | – | – | – | – | displaced BODIPY-Cyc in a dose-dependent manner
